Test results: US6444685B1, “N-(4-sulfonylaryl)Cyclylamine 2-hydroxyethylamines as beta-3 adrenergic receptor agonists” (Wyeth, priority 2000, dated 2002)

What was measured:
Assay type in all cases: cell-based
[1] = molecular target: T1, human β2-adrenergic receptor (Homo sapiens, UniProt P07550); assay: cAMP accumulation (SPA) in CHO cells transfected with human β2 adrenergic receptor; details: for beta-2 (IA) maximal response relative to isoproterenol: IA = % activity compound / % activity isoproterenol at 10^−5 M, CHO human β2 cells; for EC50: CHO cells transfected with human β2-AR, cAMP, 15 min incubation, 10^−8 to 10^−4 M, read-out: beta-2 EC50
T1 construct: expressed in transfected cells; host or cells: CHO cells
Description: (§1) The ability of compounds of this invention to treat or inhibit disorders related to insulin resistance or hyperglycemia was established with representative compounds of this invention in the following standard pharmacological test procedures, which measured the binding selectivity to the β1, β2, and β3 adrenergic receptors. Binding to the receptors was measured in Chinese Hamster ovary (CHO) cells that were transfected with adrenergic receptors. The following briefly summarizes the procedures used and results obtained.
(§2) Transfection of CHO cells with β1 and β2 adrenergic receptors: CHO cells were transfected with human β1- or β2-adrenergic receptors as described in Tate, K. M., Eur. J. Biochem., 196:357-361 (1991).
(§3) Binding Procedure: Clones expressing receptor levels of 70 to 110 fmoles/mg protein were used in the test procedures. CHO cells were grown in 24-well tissue culture plates in Dulbecco's Modified Eagle Media with 10% fetal bovine serum, MEM non-essential amino acids, Penicillin-Streptompycin and Geneticin. On the day of test procedure, growth medium was replaced with preincubation media (Dulbecco's Modified Eagle Media and incubated for 30 minutes at 37° C. Preincubation medium was replaced with 0.2 ml treatment medium containing DMEM media containing 250 μM IBMX (isobutyl-1-methylxantine) plus 1 mM ascorbic acid with test compound dissolved in DMSO. Test compounds were tested over a concentration range of 10^−9 M to 10^−5 M for β3 cells and 10^−8 to 10^−4 M for β1 and β2 transfected cells. Isoproterenol (10^−5 M) was used as an internal standard for comparison of activity. Cells were incubated at 37° C. on a rocker for 30 min with the β3 cells and 15 min for β1 and β2 cells. Incubation was stopped with the addition of 0.2N HCl and neutralized with 2.5N NaOH. The plates, containing the cells and neutralized media, were stored at −20 degrees celsius until ready to test for cAMP using the SPA test kit (Amersham).
(§4) Data Analysis and Results: Data collected from the SPA test procedure were analyzed as per cent of the maximal isoproterenol response at 10^−5 M. Activity curves were plotted using the SAS statistical and graphics software. EC50 values were generated for each compound and the maximal response (IA) developed for each compound is compared to the maximal response of isoproternol at 10^−5 M from the following formula:
(§5) IA=% activity compound/% activity isoproterenol

[2] = molecular target: T2, human β1-adrenergic receptor (Homo sapiens, UniProt P08588); assay: cAMP accumulation (SPA) in CHO cells transfected with human β1 adrenergic receptor; details: for beta-1 (IA) maximal response relative to isoproterenol: IA = % activity compound / % activity isoproterenol at 10^−5 M, CHO human β1 cells; for EC50: CHO cells transfected with human β1-AR, cAMP, 15 min incubation, 10^−8 to 10^−4 M, read-out: beta-1 EC50
T2 construct: expressed in transfected cells; host or cells: CHO cells
Description: as §1, §2, §3, §4, §5

[3] = molecular target: T3, human β3 adrenergic receptor (Homo sapiens, UniProt P13945); assay: cAMP accumulation (SPA) in CHO cells transfected with human β3 adrenergic receptor; details: for EC50: CHO cells expressing human β3-AR, cAMP, 30 min incubation, 10^−9 M to 10^−5 M, read-out: beta-3 EC50; for beta-3 (IA) maximal response relative to isoproterenol: IA = % activity compound / % activity isoproterenol at 10^−5 M, CHO human β3 cells
T3 construct: Full length β3 AR clones (402 amino acids) containing the last 6 amino acids of hβ3— AR are prepared; expressed in transfected cells; host or cells: CHO cells
Description: as §1
Cloning of Human β3-AR Genomic DNA: cDNA was constructed by ligating four polymerase chain reaction (PCR) products using the following primers: an ATG-Narl fragment, sense primer 5′-[…]3′ and anti-sense primer 5′[…]3′; a Narl-Accl fragment, 5′[…]3′ as sense and 5′[…]3′ as anti-sense primer; an Accli-Styl fragment, sense primer 5′[…]3′ and anti-sense primer 5′[…]3′ and a Styl-TAG fragment, with sense primer 5′[…]3′ and anti-sense primer 5′[…]3′. The corresponding primer sequences are described in Mantzoros, C. S., et.al., Diabetes 45: 909-914 (1996). The four fragments are ligated into a pUC 18 plasmid (Gibco-BRL) and sequenced. Full length β3 AR clones (402 amino acids) containing the last 6 amino acids of hβ3— AR are prepared with the β3-βARpcDNA3from ATTC.
as §3, §4, §5

T2 sequence (P08588 whole entry): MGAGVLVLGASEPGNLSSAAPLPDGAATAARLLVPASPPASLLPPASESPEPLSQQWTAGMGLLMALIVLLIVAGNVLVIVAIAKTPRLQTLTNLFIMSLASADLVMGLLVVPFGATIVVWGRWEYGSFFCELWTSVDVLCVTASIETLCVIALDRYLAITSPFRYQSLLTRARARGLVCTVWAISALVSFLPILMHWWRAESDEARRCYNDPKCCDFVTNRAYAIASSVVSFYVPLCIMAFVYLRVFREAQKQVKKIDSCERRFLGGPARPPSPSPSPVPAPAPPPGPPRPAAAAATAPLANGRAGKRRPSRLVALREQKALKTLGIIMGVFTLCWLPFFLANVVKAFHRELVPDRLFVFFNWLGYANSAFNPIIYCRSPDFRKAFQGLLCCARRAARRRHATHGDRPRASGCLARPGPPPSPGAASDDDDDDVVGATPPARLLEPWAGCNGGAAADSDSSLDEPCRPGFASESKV
T3 sequence (P13945 whole entry): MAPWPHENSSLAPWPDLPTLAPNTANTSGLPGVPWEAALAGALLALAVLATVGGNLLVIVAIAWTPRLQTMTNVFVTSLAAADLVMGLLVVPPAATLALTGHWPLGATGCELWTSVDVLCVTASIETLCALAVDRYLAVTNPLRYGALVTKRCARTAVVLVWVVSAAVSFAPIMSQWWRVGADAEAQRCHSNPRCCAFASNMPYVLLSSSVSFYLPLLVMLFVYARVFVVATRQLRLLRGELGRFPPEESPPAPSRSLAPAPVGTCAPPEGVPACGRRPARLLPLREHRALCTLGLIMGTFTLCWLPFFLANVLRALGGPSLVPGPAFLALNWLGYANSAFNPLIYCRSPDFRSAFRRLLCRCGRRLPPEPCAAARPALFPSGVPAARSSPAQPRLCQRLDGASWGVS

With `COC(=O)CNS(=O)(=O)c1ccc(N2CCC(NC[C@H](O)c3ccc(O)c(NS(C)(=O)=O)c3)CC2)cc1` [Example 57, Methyl 2-{[(4-{4-[((2R)-2-Hydroxy-2-{4-hydroxy-3-[(methylsulfonyl)amino]-phenyl}ethyl)amino]-1-piperidinyl}phenyl)sulfonyl]amino}acetate] the “beta-2 (IA) maximal response relative to isoproterenol” value [1] was “(0.18)”, the “beta-1 (IA) maximal response relative to isoproterenol” value [2] was “(0.18)” and the EC50 [3] was 6 nM. The “beta-3 (IA) maximal response relative to isoproterenol” value [3] was “(0.85)”.
In the case of `CS(=O)(=O)Nc1cc(C(O)CNC2CCN(c3ccc(S(=O)(=O)NCc4ccccc4)cc3)CC2)ccc1O` (stereo not drawn) [Example 5, N-Benzyl-4-{4-[2-hydroxy-2-(4-hydroxy-3-methanesulfonylamino-phenyl)-ethylamino]-piperidin-1-yl}-benzenesulfonamide], the “beta-2 (IA) maximal response relative to isoproterenol” value [1] is reported as “(0.07)”, the EC50 [2] is reported as 2200 nM and the “beta-1 (IA) maximal response relative to isoproterenol” value [2] is reported as “(0.59)”. The EC50 [3] was 16 nM and the “beta-3 (IA) maximal response relative to isoproterenol” value [3] was “(0.98)”.
`CCOC(=O)CN(C)S(=O)(=O)c1ccc(N2CCC(NC[C@H](O)c3ccc(O)c(NS(C)(=O)=O)c3)CC2)cc1` [Example 25, [(4-{4-[(2R)-2-Hydroxy-2-(4-hydroxy-3-methanesulfonylamino-phenyl)-ethylamino]-piperidin-1-yl}-benzenesulfonyl)-methyl-amino]-acetic Acid Ethyl Ester] was tested, and the EC50 [1] was 1430 nM, the “beta-2 (IA) maximal response relative to isoproterenol” value [1] was “(0.37)” and the EC50 [2] was 1000 nM. The “beta-1 (IA) maximal response relative to isoproterenol” value [2] was “(0.63)”, the EC50 [3] was 52 nM and the “beta-3 (IA) maximal response relative to isoproterenol” value [3] was “(1)”.
`CC(C)CNS(=O)(=O)c1ccc(N2CCC(NC[C@H](O)c3ccc(O)c(NS(C)(=O)=O)c3)CC2)cc1` [Example 27, 4-{4-[(2R)-2-Hydroxy-2-(4-hydroxy-3-methanesulfonylamino-phenyl)-ethylamino]-piperidin-1-yl}-N-isobutyl-benzenesulfonamide] was tested, and the EC50 [1] was 540 nM, the “beta-2 (IA) maximal response relative to isoproterenol” value [1] was “(0.29)” and the EC50 [2] was 420 nM. For the same compound, the “beta-1 (IA) maximal response relative to isoproterenol” value [2] was “(0.22)”, the EC50 [3] was 2 nM and the “beta-3 (IA) maximal response relative to isoproterenol” value [3] was “(1)”.
For “1-(4-{4-[2-Hydroxy-2-(4-hydroxy-3-methanesulfonylmethyl-phenyl)ethylamino]-piperidin-1-yl}-benzenesulfonylamino)cyclohexane Carboxylic Acid Ethyl Ester [Example 43]”, the EC50 [1] was 90 nM, the “beta-2 (IA) maximal response relative to isoproterenol” value [1] was “(0.68)” and the EC50 [2] was 1280 nM. For the same compound, the “beta-1 (IA) maximal response relative to isoproterenol” value [2] was “(0.58)”, the EC50 [3] was 1 nM and the “beta-3 (IA) maximal response relative to isoproterenol” value [3] was “(1)”.
With `CN(CC(=O)O)S(=O)(=O)c1ccc(N2CCC(NC[C@H](O)c3ccc(O)c(NS(C)(=O)=O)c3)CC2)cc1` [Example 33, [(4-{4-[(2R)-2-Hydroxy-2-(4-hydroxy-3-methanesulfonylamino-phenyl)-ethylamino]-piperidin-1-yl}-benzenesulfonyl)-methyl-amino]-acetic Acid] the “beta-2 (IA) maximal response relative to isoproterenol” value [1] was “(0.15)”, the EC50 [2] was 25000 nM and the “beta-1 (IA) maximal response relative to isoproterenol” value [2] was “(0.66)”. For the same compound, the EC50 [3] was 18 nM and the “beta-3 (IA) maximal response relative to isoproterenol” value [3] was “(1)”.
In the case of `O=c1[nH]c2cccc(OCC(O)CNC3CCN(c4ccc(S(=O)(=O)NCc5ccccc5)cc4)CC3)c2[nH]1` (stereo not drawn) [Example 4, N-Benzyl-4-{4-[2-hydroxy-3-(2-oxo-2,3-dihydro-1H-benzoimidazol-4-yloxy)-propylamino]-piperidin-1-yl}-benzenesulfonamide], the “beta-2 (IA) maximal response relative to isoproterenol” value [1] is reported as “(0)”, the “beta-1 (IA) maximal response relative to isoproterenol” value [2] is reported as “(0.17)” and the EC50 [3] is reported as 21 nM. The “beta-3 (IA) maximal response relative to isoproterenol” value [3] was “(0.78)”.
In the case of `CC(C)NS(=O)(=O)c1ccc(N2CCC(NC[C@H](O)c3ccc(O)c(NS(C)(=O)=O)c3)CC2)cc1` [Example 29, 4-{4-[(2R)-2-Hydroxy-2-(4-hydroxy-3-methanesulfonylamino-phenyl)-ethylamino]-piperidin-1-yl}-N-isopropyl-benzenesulfonamide], the EC50 [1] is reported as 2900 nM, the “beta-2 (IA) maximal response relative to isoproterenol” value [1] is reported as “(0.48)” and the EC50 [2] is reported as 2000 nM. For the same compound, the “beta-1 (IA) maximal response relative to isoproterenol” value [2] was “(0.57)”, the EC50 [3] was 7 nM and the “beta-3 (IA) maximal response relative to isoproterenol” value [3] was “(1.3)”.
`CCOC(=O)[C@H](CC(C)C)NS(=O)(=O)c1ccc(N2CCC(NC[C@H](O)c3ccc(O)c(NS(C)(=O)=O)c3)CC2)cc1` [Example 37, Ethyl (2S)-2-{[(4-{4-[((2R)-2-Hydroxy-2-{4-hydroxy-3-[(methylsulfonyl)amino]-phenyl}ethyl)amino]-1-piperidinyl}phenyl)sulfonyl]amino}-4-methylpentanoate] was tested, and the EC50 [1] was 900 nM, the “beta-2 (IA) maximal response relative to isoproterenol” value [1] was “(0.42)” and the EC50 [2] was 5600 nM. For the same compound, the “beta-1 (IA) maximal response relative to isoproterenol” value [2] was “(0.43)”, the EC50 [3] was 16 nM and the “beta-3 (IA) maximal response relative to isoproterenol” value [3] was “(0.89)”.
With `CC(C)(C)OC(=O)CN(Cc1cc(F)ccc1F)S(=O)(=O)c1ccc(N2CCC(NC[C@H](O)c3ccc(O)c(NS(C)(=O)=O)c3)CC2)cc1` [Example 67, tert-Butyl {(2,5-difuorobenzyl)[(4-{4-[((2R)-2-hydroxy-2-{4-hydroxy-3-[(methylsulfonyl)amino]phenyl}ethyl)amino]piperidin-1-yl}phenyl)sulfonyl]-amino}acetate] the “beta-2 (IA) maximal response relative to isoproterenol” value [1] was “(0.17)”, the EC50 [2] was 1000 nM and the “beta-1 (IA) maximal response relative to isoproterenol” value [2] was “(0.48)”. The EC50 [3] was 5 nM and the “beta-3 (IA) maximal response relative to isoproterenol” value [3] was “(0.96)”.
With `CS(=O)(=O)Nc1cc([C@@H](O)CNC2CCN(c3ccc(S(=O)(=O)N(CC(=O)O)CC(=O)O)cc3)CC2)ccc1O` [Example 55, 2-((Carboxymethyl)[(4-{4-[((2R)-2-hydroxy-2-{4-hydroxy-3-[(methylsulfonyl)amino]phenyl)ethyl)amino]-1-piperidinyl}phenyl)sulfonyl]amino}acetic Acid] the EC50 [3] was 410 nM and the “beta-3 (IA) maximal response relative to isoproterenol” value [3] was “(0.94)”.
`O=S(=O)(NCc1ccccc1)c1ccc(N2CCC(NC[C@H](O)COc3ccc(O)cc3)CC2)cc1` [Example 6, N-Benzyl-4-{4-[(2S)-2-hydroxy-3-(4-hydroxy-phenoxy)-propylamino]-piperidin-1-yl}-benzenesulfonamide] was tested, and the EC50 [3] was 200 nM and the “beta-3 (IA) maximal response relative to isoproterenol” value [3] was “(0.76)”.
